Values of other authors in patent US9446052B2, “Composition for prevention of nausea or vomiting” (SAMYANG BIOPHARMACEUTICALS CORPORATION, priority 2010, dated 2016).

Details: pH 6-7.5

Solubility in water: not soluble
SMILES: Cc1nccn1CC1CCc2c(c3ccccc3n2C)C1=O (stereo not shown) [ondansetron]
